From ChEMBL document CHEMBL1201862, “PubChem BioAssay data set” (2004)
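1) Cells in 96-well plates. 2) Compound, 48 h, 5 concentrations. 3) Linear interpolation between surrounding doses. 4) Unreached endpoint = highest concentration. Here, GI50 denotes the concentration required for 50% inhibition of growth.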 Activity calls are given as the source filed them. Rule as the data show it: active = GI50 up to about 1.1 µM and inactive = higher.

What was measured:
Test in all cases: DTP human tumour cell line panel, 48 h
A498 = tested on: A498
DU-145 = tested on: DU-145
EKVX = tested on: EKVX
HCC 2998 = tested on: HCC 2998
HOP-62 = tested on: HOP-62
Hs-578T = tested on: Hs-578T
M14 = tested on: M14
MDA-N = tested on: MDA-N
NCI-H226 = tested on: NCI-H226
NCI-H23 = tested on: NCI-H23
NCI-H460 = tested on: NCI-H460
NCI/ADR-RES = tested on: NCI/ADR-RES
OVCAR-3 = tested on: OVCAR-3
OVCAR-8 = tested on: OVCAR-8
PC-3 = tested on: PC-3
SK-MEL-2 = tested on: SK-MEL-2
SN12C = tested on: SN12C
SR = tested on: SR
SW-620 = tested on: SW-620
T47D = tested on: T47D

| SMILES | GI50 (A498) | GI50 (DU-145) | GI50 (EKVX) | GI50 (HCC 2998) | GI50 (HOP-62) | GI50 (Hs-578T) | GI50 (M14) | GI50 (MDA-N) | GI50 (NCI-H226) | GI50 (NCI-H23) | GI50 (NCI-H460) | GI50 (NCI/ADR-RES) | GI50 (OVCAR-3) | GI50 (OVCAR-8) | GI50 (PC-3) | GI50 (SK-MEL-2) | GI50 (SN12C) | GI50 (SR) | GI50 (SW-620) | GI50 (T47D) |
| --- | --- | --- | --- | --- | --- | --- | --- | --- | --- | --- | --- | --- | --- | --- | --- | --- | --- | --- | --- | --- |
| FC(F)(F)c1cccc(-c2nc3nc(Cl)c(Cl)nc3[nH]2)c1 | 1.75 µM (inactive) | 3.29 µM (inactive) | 2.96 µM (inactive) | 3.11 µM (inactive) | 3.22 µM (inactive) | 2.57 µM (inactive) | 3.42 µM (inactive) | 2.18 µM (inactive) | 1.67 µM (inactive) | 1.47 µM (inactive) | 2.01 µM (inactive) | 2.53 µM (inactive) | 1.59 µM (inactive) | 3.06 µM (inactive) | 2.5 µM (inactive) | 1.56 µM (inactive) | 2.69 µM (inactive) | 2.62 µM (inactive) | 3.72 µM (inactive) | 1.29 µM (inactive) |
| CCN(CC)c1ccc2cc(-c3nc4ccccc4n3C)c(=O)oc2c1 | 0.0163 µM (active) | 0.306 µM (active) |  | 0.685 µM (active) | 0.411 µM (active) | 0.269 µM (active) | 0.355 µM (active) | 0.0259 µM (active) | 0.302 µM (active) | 0.334 µM (active) | 0.286 µM (active) | 0.135 µM (active) | 0.24 µM (active) | 0.497 µM (active) | 0.2 µM (active) | 0.255 µM (active) | 0.713 µM (active) | 0.0986 µM (active) | 0.163 µM (active) | > 100 µM (inactive) |
| CCCCc1ccc(Nc2nc(Cl)c3c(ncn3COCCOC(C)=O)n2)cc1 | 20.5 µM (inactive) | 16.6 µM (inactive) | 19.8 µM (inactive) | 19.9 µM (inactive) | 16.7 µM (inactive) | 21.5 µM (inactive) | 17.9 µM (inactive) | 18.8 µM (inactive) | 17.4 µM (inactive) | 18.7 µM (inactive) | 18.3 µM (inactive) | 23.5 µM (inactive) | 21.2 µM (inactive) | 18.3 µM (inactive) | 20.9 µM (inactive) | 19.1 µM (inactive) | 19.3 µM (inactive) | 20.7 µM (inactive) | 23.1 µM (inactive) | 17.8 µM (inactive) |
| N#C[C@H](C(=O)c1ccccc1F)c1nc2ccccc2[nH]1 | 87.9 µM (inactive) | > 100 µM (inactive) | > 100 µM (inactive) | > 100 µM (inactive) | > 100 µM (inactive) | 85.5 µM (inactive) | > 100 µM (inactive) | > 100 µM (inactive) | > 100 µM (inactive) | > 100 µM (inactive) | > 100 µM (inactive) | > 100 µM (inactive) | > 100 µM (inactive) | > 100 µM (inactive) | > 100 µM (inactive) | > 100 µM (inactive) | > 100 µM (inactive) | 58.9 µM (inactive) | > 100 µM (inactive) | > 100 µM (inactive) |
| CCc1ccccc1N1CCN(C(=O)c2cc(OC)c(OC)c(OC)c2)CC1 | 0.0303 µM (active) | 0.0207 µM (active) | 1.39 µM (inactive) | 0.0585 µM (active) | 0.0217 µM (active) | 0.0144 µM (active) | 0.0135 µM (active) | < 0.01 µM (active) | 0.103 µM (active) | 0.0557 µM (active) | 0.0307 µM (active) | 0.0151 µM (active) | 0.0143 µM (active) | 0.0914 µM (active) | < 0.0144 µM (active) | 0.0247 µM (active) | 0.184 µM (active) | 0.0893 µM (active) | 0.0208 µM (active) | 17.3 µM (inactive) |
| COc1cc2c3cc1Oc1c(OC)c(OC)cc4c1C(Cc1ccc(O)c(c1)Oc1ccc(cc1)CC3N(C)CC2)CN(C)C4 (configuration not stated) | 16.9 µM (inactive) | 17.7 µM (inactive) | 19 µM (inactive) | 3.44 µM (inactive) | 20 µM (inactive) | 15.5 µM (inactive) | 4.1 µM (inactive) | 12.2 µM (inactive) | 28.7 µM (inactive) | 16.9 µM (inactive) | 16 µM (inactive) | 19.3 µM (inactive) | 15 µM (inactive) | 15 µM (inactive) | 21.1 µM (inactive) | 18.3 µM (inactive) | 15.8 µM (inactive) | 6.14 µM (inactive) | 12.9 µM (inactive) | 22.1 µM (inactive) |
| Cc1noc(NS(=O)(=O)c2ccc(NC(=O)c3ccc4nc5ccccc5c(Nc5ccc(S(=O)(=O)Nc6onc(C)c6C)cc5)c4c3)cc2)c1C | > 100 µM (inactive) | > 100 µM (inactive) | > 100 µM (inactive) | > 100 µM (inactive) | > 100 µM (inactive) | > 100 µM (inactive) | > 100 µM (inactive) | > 100 µM (inactive) | > 100 µM (inactive) | > 100 µM (inactive) | 67.3 µM (inactive) | > 100 µM (inactive) | 70.3 µM (inactive) | > 100 µM (inactive) | > 100 µM (inactive) | > 100 µM (inactive) | > 100 µM (inactive) | 42 µM (inactive) | 97.7 µM (inactive) | 40.2 µM (inactive) |
| O=C1C2=C(C(=O)c3c(O)ccc(O)c31)[C@@H](O)[C@@H](O)[C@@H](O)C2 | 7.05 µM (inactive) | 2.72 µM (inactive) | 2.77 µM (inactive) | 7.33 µM (inactive) | 3.97 µM (inactive) | 3.72 µM (inactive) | 1.86 µM (inactive) | 1.49 µM (inactive) | 15.1 µM (inactive) | 1.96 µM (inactive) | 4.71 µM (inactive) | 2.66 µM (inactive) | 0.504 µM (active) | 2.31 µM (inactive) | 2.66 µM (inactive) | 1.73 µM (inactive) | 2.01 µM (inactive) | > 100 µM (inactive) | 0.681 µM (active) | 1.1 µM (active) |
| CCOC(CCNCC(OCC)OCC)OCC | > 10 µM (inactive) | > 10 µM (inactive) | > 10 µM (inactive) | > 10 µM (inactive) | > 10 µM (inactive) | > 10 µM (inactive) | > 10 µM (inactive) | > 10 µM (inactive) | > 10 µM (inactive) | > 10 µM (inactive) | > 10 µM (inactive) | > 10 µM (inactive) | > 10 µM (inactive) | > 10 µM (inactive) | > 10 µM (inactive) | > 10 µM (inactive) | > 10 µM (inactive) | > 10 µM (inactive) |  | > 10 µM (inactive) |
| Cc1cc2c(cc1C)C(=O)c1ncccc1C2=O | 50.2 µM (inactive) | 24.2 µM (inactive) | 17.4 µM (inactive) | 33.4 µM (inactive) | 71.3 µM (inactive) | > 100 µM (inactive) | 23.6 µM (inactive) | 18.7 µM (inactive) | 40.1 µM (inactive) | 15.6 µM (inactive) | 7.91 µM (inactive) | 22.8 µM (inactive) | 3.06 µM (inactive) | 31.9 µM (inactive) | 29 µM (inactive) | 48.5 µM (inactive) | 22.6 µM (inactive) | < 0.01 µM (active) | 30.9 µM (inactive) | 34.8 µM (inactive) |
| O=C1C[C@@]23CCC4(CC2=CCC[C@H]3O1)OCCO4 | > 100 µM (inactive) | > 100 µM (inactive) | > 100 µM (inactive) | > 100 µM (inactive) | > 100 µM (inactive) | > 100 µM (inactive) | > 100 µM (inactive) | > 100 µM (inactive) | > 100 µM (inactive) | > 100 µM (inactive) | > 100 µM (inactive) | > 100 µM (inactive) | > 100 µM (inactive) |  | > 100 µM (inactive) | > 100 µM (inactive) | > 100 µM (inactive) | > 100 µM (inactive) | > 100 µM (inactive) | > 100 µM (inactive) |
| CCOC(=O)C#Cc1ccccc1 | 21.3 µM (inactive) | 25.8 µM (inactive) | 2.28 µM (inactive) | 12.2 µM (inactive) | 17.3 µM (inactive) | 19.3 µM (inactive) | 5.14 µM (inactive) | 4.09 µM (inactive) | 20 µM (inactive) | 7.26 µM (inactive) | 60 µM (inactive) | 4.82 µM (inactive) | 19.1 µM (inactive) | 8.75 µM (inactive) | 8.95 µM (inactive) | 1.69 µM (inactive) | 5.55 µM (inactive) | 2.05 µM (inactive) | 8.2 µM (inactive) | 19.4 µM (inactive) |
| O=c1oc2cc(O)ccc2c(O)c1C(c1ccccc1F)c1c(O)c2ccc(O)cc2oc1=O | > 100 µM (inactive) | > 100 µM (inactive) | > 100 µM (inactive) | 21.2 µM (inactive) | > 100 µM (inactive) | 68.9 µM (inactive) | > 100 µM (inactive) | 61.2 µM (inactive) | > 100 µM (inactive) | > 100 µM (inactive) | > 100 µM (inactive) | > 100 µM (inactive) | > 100 µM (inactive) | 56.4 µM (inactive) | > 100 µM (inactive) | 45 µM (inactive) | > 100 µM (inactive) | 34.7 µM (inactive) | 38.4 µM (inactive) | > 100 µM (inactive) |
| COC(=O)C(Cc1ccccc1)NP(=O)(O)OCC1OC(n2ccc(N)nc2=O)C(O)C1O (configuration not stated) | > 100 µM (inactive) | > 100 µM (inactive) | > 100 µM (inactive) | > 100 µM (inactive) | > 100 µM (inactive) | > 100 µM (inactive) | > 100 µM (inactive) | > 100 µM (inactive) | > 100 µM (inactive) | > 100 µM (inactive) | > 100 µM (inactive) | > 100 µM (inactive) | > 100 µM (inactive) | > 100 µM (inactive) | > 100 µM (inactive) | > 100 µM (inactive) | > 100 µM (inactive) | 66.1 µM (inactive) | > 100 µM (inactive) | > 100 µM (inactive) |
